Data on one substance can be found in patent US10369188B2, “Methods for preventing and treating pneumocystis infections” (Cidara Therapeutics, Inc., priority 2016, dated 2019).

In the assay the test system is Pneumocystis murina. Description: Pneumocystis murina prophylaxis study in dexamethasone-immunosuppressed mice (lung nuclei and asci counts). Type of assay: in vivo, C3H/HeN mice. The following applies: positive control group, 50/250 mg/kg/3x/wk, 6 weeks.

Experimental: Briefly, the vehicle was prepared by first adding 1% Tween 20 to sterile phosphate-buffered saline (PBS) and then adding DMSO for a 10% DMSO in 1% Tween 20 in sterile PBS solution. […] For the 20 mg/kg/d dose, the drug was dissolved in vehicle to a concentration of 2.4 mg/ml. The mice then received 0.48 mg in a 200 μl dose. The drug was stored at −20° C. until initiation of dosage. The drug was prepared fresh for every two days of dosing.
C3H/HeN mice (Charles River) were infected with P. murina by intranasal inoculation of P. murina organisms at 2×106/50 μl from our liquid nitrogen repository. Prior to inoculation, the P. murina organisms were pre-incubated overnight in RPMI 1640 medium supplemented with calf serum and antibiotics to eliminate any bacterial contamination. […] Slides were made from the lung homogenates at different dilutions and stained with Diff-Quik to quantify the trophic forms and cresyl echt violet to quantify the asci.
Efficacy is based on the reduction of organism burden between the treatment groups and the negative control group as determined by microscopic evaluation. The nuclei and asci counts for each lung are log transformed and statistical analysis is determined by the analysis of variance (ANOVA); individual groups are compared by the Student-Newman-Keuls t test for multiple comparisons using GraphPad Prism. […]

As to trimethoprim/sulfamethoxazole [TMP/SMX], the “asci observed by microscopic evaluation” value is reported as “no asci observed” and the “nuclei seen by microscopic evaluation” value is “no nuclei seen”.
